Test results published in paper PMC8179002, “Inhibitors of thiol-mediated uptake” (Chemical Science, 2020).
In brackets after ≈: the same amount, converted by molar mass. Read-outs that look alike come from different tables or passages of the source. Bridge positions count the residues as written; N and C are the ends. Peptide text beside a SMILES is read from it.

Key:
[1] = tested on: cellular uptake of 1 in HeLa Kyoto cells; experiment: cells; type: cell-based; details: for IC50: read-out: IC50, inhibition of cellular uptake of 1; for minimal effective concentration: read-out: MIC, inhibition of cellular uptake of 1; for MIC (concentration that causes ∼15% reduction of reporter uptake), against reporter 1: pre-incubation time not given (Fig. 2: 1 h pre-incubation, 30 min with reporter; some 15 min)
In short: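 HeLa Kyoto cells were pre-incubated with inhibitors at varying concentrations and times, washed, then given reporter 1 at 10 μM final for 30 min at 37°C; alternatively, inhibitors were kept during reporter exposure. Hoechst/PI staining and 10x high-content imaging gave mean intracellular fluorescence per cell and viability from PI-negative nuclei.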

[2] = tested on: cellular uptake of 2 in HeLa Kyoto cells; experiment: cells; type: cell-based
[3] = HeLa Kyoto, 0.5 h, HeLa, tpre 0.5 h with inhibitor, removal, tinc 0.5 h with 1 (10 µM)
[4] = HeLa Kyoto, 1 h, HeLa, tpre 1 h with inhibitor, removal, tinc 0.5 h with 1 (10 µM)
[5] = HeLa Kyoto, 2 h, HeLa, tpre 2 h with inhibitor, removal, tinc 0.5 h with 1 (10 µM)
[6] = HeLa Kyoto, HeLa, tpre 1 h with inhibitor, removal, tinc 0.5 h with 1 (10 µM)
[7] = HeLa Kyoto, HeLa, tpre 2 h with inhibitor, removal, tinc 0.5 h with 1 (10 µM)
[8] = HeLa Kyoto, HeLa, tpre 4 h with inhibitor, removal, tinc 0.5 h with 2 (10 µM), read-out: IC50, inhibition of cellular uptake of 2
[9] = HeLa Kyoto, HeLa, tpre 6 h with FBS, removal, tinc 0.5 h with 2 (10 µM), read-out: IC50, inhibition of cellular uptake of 2
[10] = HeLa, tpre 4 h with inhibitor, removal, tinc 0.5 h with 2 (10 µM)
[11] = HeLa, tpre 6 h with FBS, removal, tinc 0.5 h with 2 (10 µM)
[12] = HeLa, tpre 0.5 h, then tco 0.5 h co-incubation of inhibitor and 2 (10 µM)
[13] = HeLa Kyoto, 0.5 h, HeLa, tpre 0.5 h, then tco 0.5 h co-incubation of inhibitor and 1 (10 µM)
[14] = HeLa Kyoto, 0.5 h, HeLa, tpre 5.5 h with FBS, then tco 0.5 h co-incubation of inhibitor and 1 (10 µM)
[15] = HeLa Kyoto, 0.5 h, HeLa, tpre 23.5 h with FBS, then tco 0.5 h co-incubation of inhibitor and 1 (10 µM)
[16] = HeLa Kyoto, HeLa, tpre 5.5 h with FBS, then tco 0.5 h co-incubation of inhibitor and 1 (10 µM)
[17] = HeLa Kyoto, HeLa, tpre 23.5 h with FBS, then tco 0.5 h co-incubation of inhibitor and 1 (10 µM)

Row | Structure (SMILES) | IC50 [1, 3] [µM] | minimal effective concentration [1, 3] [µM] | minimal effective concentration [1, 4] [µM] | minimal effective concentration [1, 5] [µM] | IC50 [1, 6] [µM] | IC50 [1, 7] [µM] | IC50 [2, 8] [µM] | IC50 [2, 9] [µM] | MIC, inhibition of cellular uptake of 2 [2, 10] [µM] | MIC, inhibition of cellular uptake of 2 [2, 11] [µM] | MIC (concentration that causes ∼15% reduction of reporter uptake), against reporter 1 ([1]; HeLa) | MIC, inhibition of cellular uptake of 2 [2, 12] [µM] | minimal effective concentration [1, 14] [µM] | minimal effective concentration [1, 15] [µM] | IC50 [1, 16] [µM] | IC50 [1, 17] [µM] | other results
1 | O=C(O)CC[C@H](NC(=O)CN1C(=O)C2SSC1C(=O)N2CCOc1ccccc1)C(=O)O (some centres unmarked) [compound 9] | 89 ± 9 | 15 | 7 | 7 | 86 ± 13 | > 100 | > 100 | > 200 | 60 | 80 | – | – | – | – | – | – | –
2 | N[C@H]1CSSC[C@@H](C(=O)NCC(=O)O)NC(=O)[C@H](CCC(=O)O)NC1=O [compound 18] (H-CECG-OH; disulfide 1-3) | – | – | – | – | – | – | – | – | 100 | – | ≈ 300 μM | 4 | – | – | – | – | minimal effective concentration ([1]; 2 h): 200 µM; IC50 ([1]; HeLa, tpre 0.5 h, then tco 0.5 h co-incubation of inhibitor and 1 (10 µM)): > 500 µM; IC50 ([1]; HeLa, tpre 0.5 h with inhibitor, removal, tinc 0.5 h with 1 (10 µM)): > 2000 µM; IC50 ([1]; HeLa, tpre 1 h with inhibitor, removal, tinc 0.5 h with 1 (10 µM)): > 2000 µM; IC50 ([1]; HeLa, tpre 2 h with inhibitor, removal, tinc 0.5 h with 1 (10 µM)): > 2000 µM; IC50 ([1]; HeLa, tpre 5.5 h with FBS, then tco 0.5 h co-incubation of inhibitor and 1 (10 µM)): 1000 ± 110 µM; IC50 ([1]; HeLa, tpre 23.5 h with FBS, then tco 0.5 h co-incubation of inhibitor and 1 (10 µM)): 1000 ± 40 µM; IC50 ([2]; HeLa, tpre 0.5 h, then tco 0.5 h co-incubation of inhibitor and 2 (10 µM), read-out: IC50, inhibition of cellular uptake of 2): 44 ± 5 µM; MIC, inhibition of cellular uptake of 2 ([2]; HeLa, tpre 1 h with inhibitor, removal, tinc 0.5 h with 2 (10 µM)): 300 µM; IC50 ([2]; HeLa, tpre 1 h with inhibitor, removal, tinc 0.5 h with 2 (10 µM), read-out: IC50, inhibition of cellular uptake of 2): > 1000 µM; MIC, inhibition of cellular uptake of 2 ([2]; HeLa, tpre 1.5 h, then tco 0.5 h co-incubation of inhibitor and 2 (10 µM)): 4 µM; IC50 ([2]; HeLa, tpre 1.5 h, then tco 0.5 h co-incubation of inhibitor and 2 (10 µM), read-out: IC50, inhibition of cellular uptake of 2): 41 ± 4 µM; MIC, inhibition of cellular uptake of 2 ([2]; HeLa, tpre 2 h with inhibitor, removal, tinc 0.5 h with 2 (10 µM)): 200 µM; IC50 ([2]; HeLa, tpre 2 h with inhibitor, removal, tinc 0.5 h with 2 (10 µM), read-out: IC50, inhibition of cellular uptake of 2): > 1000 µM; IC50 ([2]; HeLa, tpre 4 h with inhibitor, removal, tinc 0.5 h with 2 (10 µM), read-out: IC50, inhibition of cellular uptake of 2): 859 ± 140 µM; MIC against reporter 2 ([2]; HeLa, upon co-incubation): ≈ 5 μM
3 | O=C(O)CNC(=O)c1ccc2c(c1)SSSSS2 [compound 6] | 93 ± 28 | 0.3 | 0.3 | 0.4 | 35 ± 9 | 23 ± 6 | – | – | 4 | 60 | ≈ 0.3 μM | > 20 | 5 | 12 | 20 ± 1 | > 20 | IC50 [1, 13]: 5.1 ± 0.3 µM; minimal effective concentration [1, 13]: 0.5 µM; minimal effective concentration ([1]; HeLa Kyoto, 4 h, HeLa, tpre 4 h with inhibitor, removal, tinc 0.5 h with 1 (10 µM)): 0.4 µM; IC50 ([1]; HeLa Kyoto, HeLa, tpre 4 h with inhibitor, removal, tinc 0.5 h with 1 (10 µM)): 24 ± 5 µM; IC50 ([2]; HeLa Kyoto, 0.5 h, read-out: IC50, inhibition of cellular uptake of 2, HeLa, tpre 0.5 h, then tco 0.5 h co-incubation of inhibitor and 2 (10 µM)): > 20 µM; IC50 ([2]; HeLa Kyoto, read-out: IC50, inhibition of cellular uptake of 2, HeLa, tpre 4 h with inhibitor, removal, tinc 0.5 h with 2 (10 µM)): > 10 µM; IC50 ([2]; HeLa Kyoto, read-out: IC50, inhibition of cellular uptake of 2, HeLa, tpre 6 h with FBS, removal, tinc 0.5 h with 2 (10 µM)): > 100 µM; MIC against reporter 2 ([2]; HeLa, longer pre-incubation (Fig. 2: 4 h pre-incubation)): 4 µM (≈ 1.35 µg/mL)
4 | O=C(CN1C(=O)C2SSC1C(=O)N2CCOc1ccccc1)NCC(=O)OC[C@H]1OC(O)[C@H](O)[C@@H](O)[C@@H]1O (some centres unmarked) [compound 7] | 23 ± 4 | 0.5 | 0.5 | 0.2 | 27 ± 4 | 15 ± 1 | > 100 | > 200 | 70 | 180 | ≈ 0.5 μM | – | 6 | 54 | 42 ± 4 | > 100 | IC50 ([2]; HeLa Kyoto, HeLa, tpre 23.5 h with FBS, then tco 0.5 h co-incubation of inhibitor and 2 (10 µM), read-out: IC50, inhibition of cellular uptake of 2): 41 ± 4 µM; MIC, inhibition of cellular uptake of 2 ([2]; HeLa, tpre 23.5 h with FBS, then tco 0.5 h co-incubation of inhibitor and 2 (10 µM)): 15 µM
